# Experimental data from patent US4693992A, “Bacitracin-metal-polyether antibiotic complexes” (International Minerals & Chemical Corp., priority 1985, dated 1987).
# How the values were obtained:
# Eimeria tenella [1] = assay: Anticoccidial activity in chickens inoculated with Eimeria tenella (Example 12); type: in vivo, chicken; conditions: for Cecal Bleeding / Gain/Bird Days 0-3 / Gain/Bird Days 4-10: regrouped part of Table 2
# Protocol: (§1) This example describes experimental testing of complexes of this invention for anticoccidial activity. Anticoccidial activities of test compounds were determined by administering the compounds (in feed) to chickens inoculated with active oocysts of Eimeria tenella. The test compounds, which are listed in Table 1 below, included four bacitracin-metal-polyether antibiotic complexes prepared according to the procedures described above. In addition, sodium lysocellin, regular bacitracin, sodium monensin, sodium lasolocid, and unmedicated inoculated and noninoculated controls were included for comparative purposes.
# (§2) The test animals were Hubbard White Mountain male chicken (broiler strain) that were 5 days old at the beginning of the test. Each experimental compound was administered in a chick starter diet (Table 2) at a level of 80 g/ton and 120 g/ton. At 7 days of age, chicks were individually weighed, banded, and started on their respective treatments. Each treatment was replicated three times with five birds per replicate for a total of 15 birds per group. The test period was 10 days.
# Seventy-two hours after the initiation of medication, birds were reweighed and orally inoculated with approximately 100,000 Eimeria tenella oocysts suspended in a 1 cc dose of saline. The following criteria were then evaluated over the next seven days:
# A satisfactory challenge was obtained with Eimeria tenella.
# Eimeria tenella [2] = assay: Anticoccidial activity in chickens inoculated with Eimeria tenella oocysts (Example 11); type: in vivo; conditions: for Incidence of Bloody Droppings / Morbidity: 4th-6th day; for Mortality: 4th-7th day
# Protocol: as §1, §2
# Seventy-two hours after the initiation of medication, birds were reweighed and orally inoculated with approximately 100,000 Eimeria tenella oocysts suspended in a 1 cc dose of saline. The following criteria were then evaluated over the next seven days: […]
# a. morbidity (4th-6th day) b. mortality (4th-7th day) c. incidence of bloody droppings (4th-6th day)
# [3] = Weight gain and feed utilization in chicks, 12 days (Example 14); type: in vivo, chicken; conditions: .0066% in feed
# Protocol: (§3) This example describes experimetnal testing of complexes of the present invention as feed additives for improving weight gain or feed utilization efficiency in birds. Test animals were male meat-type chickens (Hubbard strain). Fluorescent room lights were on a 16 hours light/8 hours dark schedule. The chicks were allotted to the pens on the basis of weight classes, and chicks in the even numbered pens were wing banded. Group weights were obtained at the start and individual weights at the termination of the experiment. Chicks weighing between 55 and 65 grams were selected for the test. The test compounds were blended with a basal feed ration (shown in Table 2) at the indicated concentration. Birds fed […] and feed supplemented with zinc bacitracin (Baciferm® 50, International Minerals and Chemical Corp.) were used as controls. The test was continued for 11 days, after which individual weights, pen weight and feed consumption were recorded and analyzed.
# All of the bacitracin-metal-polyether antibiotic complexes tested produced statistically significant increases in gains compared to the unmedicated basal ration.
# The test involving test compounds 1 and 3-14 consisted of 5 replicates of 7 chicks and those involving test compound 2 consisted of 6 replicates of 7 chicks. The tests were continued for 12 days, after which individual weight gains and feed conusumption were recorded and analyzed.
# [4] = Weight gain and feed utilization efficiency in chicks, 11 days (Example 13); type: in vivo, chicken; design: key to Average Weight: average weight in grams; conditions: .00275% in rye basal diet
# Protocol: as §3
# [5] = 80 g/ton in feed, birds affected/birds in group
# [6] = 80 g/ton in feed, birds dead/birds in group
# [7] = 80 g/ton in feed, feed per gain
# [8] = 120 g/ton in feed, birds affected/birds in group
# [9] = 120 g/ton in feed, birds dead/birds in group
# [10] = 120 g/ton in feed, feed per gain
compound,measurement,setting,value
"CC[C@@H](C(=O)[C@@H](C)[C@@H](O)[C@H](C)CCc1ccc(C)c(O)c1C(=O)O)[C@H]1O[C@](CC)([C@H]2CC[C@](O)(CC)[C@H](C)O2)C[C@@H]1C [Lasalocid, sodium lasalocid, reference compound]",Cecal Bleeding,Eimeria tenella [1]; 14 g/ton Lasalocid (Approx.),Severe
same,Gain/Bird Days 0-3,Eimeria tenella [1]; 14 g/ton Lasalocid (Approx.),58.7
same,Gain/Bird Days 4-10,Eimeria tenella [1]; 14 g/ton Lasalocid (Approx.),148.5
same,Cecal bleeding associated with E. tenella infections,Eimeria tenella [1]; 24 (.30 of 80) gram per ton,severe
same,Incidence of Bloody Droppings,Eimeria tenella [1]; 24 g/ton in feed,Severe
same,Morbidity,Eimeria tenella [1]; 24 g/ton in feed,9/15
same,Mortality,Eimeria tenella [1]; 24 g/ton in feed,0/15
same,F/G Day 0-3,Eimeria tenella [1]; 24 g/ton in feed,1.78
same,Gain/Bird Grams Day 0-3,Eimeria tenella [1]; 24 g/ton in feed,58.7 Grams
same,F/G Day 4-10,Eimeria tenella [1]; 24 g/ton in feed,2.09
same,Gain/Bird Grams Day 4-10,Eimeria tenella [1]; 24 g/ton in feed,148.5 Grams
same,Cecal Bleeding,Eimeria tenella [1]; 36 g/ton Lasalocid (Approx.),Moderate
same,Gain/Bird Days 0-3,Eimeria tenella [1]; 36 g/ton Lasalocid (Approx.),61.5
same,Gain/Bird Days 4-10,Eimeria tenella [1]; 36 g/ton Lasalocid (Approx.),176.5
same,Incidence of Bloody Droppings,Eimeria tenella [1]; 36 g/ton in feed,Moderate
same,Morbidity,Eimeria tenella [1]; 36 g/ton in feed,5/14
same,Mortality,Eimeria tenella [1]; 36 g/ton in feed,1/14
same,F/G Day 0-3,Eimeria tenella [1]; 36 g/ton in feed,1.74
same,Gain/Bird Grams Day 0-3,Eimeria tenella [1]; 36 g/ton in feed,61.5 Grams
same,F/G Day 4-10,Eimeria tenella [1]; 36 g/ton in feed,1.86
same,Gain/Bird Grams Day 4-10,Eimeria tenella [1]; 36 g/ton in feed,176.5 Grams
same,Incidence of Bloody Droppings,Eimeria tenella [1]; 80 g/ton in feed,None
same,Morbidity,Eimeria tenella [1]; 80 g/ton in feed,1/15
same,Mortality,Eimeria tenella [1]; 80 g/ton in feed,0/15
same,F/G Day 0-3,Eimeria tenella [1]; 80 g/ton in feed,1.71
same,Gain/Bird Grams Day 0-3,Eimeria tenella [1]; 80 g/ton in feed,58.0 Grams
same,F/G Day 4-10,Eimeria tenella [1]; 80 g/ton in feed,1.60
same,Gain/Bird Grams Day 4-10,Eimeria tenella [1]; 80 g/ton in feed,219.4 Grams
same,Incidence of Bloody Droppings,Eimeria tenella [1]; 120 g/ton in feed,None
same,Morbidity,Eimeria tenella [1]; 120 g/ton in feed,0/15
same,Mortality,Eimeria tenella [1]; 120 g/ton in feed,0/15
same,F/G Day 0-3,Eimeria tenella [1]; 120 g/ton in feed,1.76
same,Gain/Bird Grams Day 0-3,Eimeria tenella [1]; 120 g/ton in feed,52.1 Grams
same,F/G Day 4-10,Eimeria tenella [1]; 120 g/ton in feed,1.52
same,Gain/Bird Grams Day 4-10,Eimeria tenella [1]; 120 g/ton in feed,225.2 Grams
same,anticoccidial activity (in words),"Eimeria tenella [2]; 80 and 120 g/ton, mild E. tenella challenge",excellent anticoccidial activity
same,Incidence of Bloody Droppings,Eimeria tenella [2]; 80 g/ton in feed,None
same,Morbidity,Eimeria tenella [2]; [5],0/15
same,Mortality,Eimeria tenella [2]; [6],0/15
same,"Gain, Grams Day 0-3",Eimeria tenella [2]; 80 g/ton in feed,59.7 Grams
same,"Gain, Grams Day 4-10",Eimeria tenella [2]; 80 g/ton in feed,232.4 Grams
same,F/G Day 0-3,Eimeria tenella [2]; [7],1.68
same,F/G Day 4-10,Eimeria tenella [2]; [7],1.58
same,Incidence of Bloody Droppings,Eimeria tenella [2]; 120 g/ton in feed,None
same,Morbidity,Eimeria tenella [2]; [8],1/15
same,Mortality,Eimeria tenella [2]; [9],0/15
same,"Gain, Grams Day 0-3",Eimeria tenella [2]; 120 g/ton in feed,55.7 Grams
same,"Gain, Grams Day 4-10",Eimeria tenella [2]; 120 g/ton in feed,230.1 Grams
same,F/G Day 0-3,Eimeria tenella [2]; [10],1.75
same,F/G Day 4-10,Eimeria tenella [2]; [10],1.56
"CC[C@@]1([C@@H]2O[C@@H]([C@H]3O[C@@](O)(CO)[C@H](C)C[C@@H]3C)C[C@@H]2C)CC[C@H]([C@]2(C)CC[C@]3(C[C@H](O)[C@@H](C)[C@@H]([C@@H](C)[C@@H](OC)[C@H](C)C(=O)O)O3)O2)O1 [Monensin, sodium monensin, reference compound]",protection against cecal bleeding,Eimeria tenella [2]; level in feed not given,fair
same,tolerance by the birds,Eimeria tenella [2]; level in feed not given,not tolerated well
same,Incidence of Bloody Droppings,Eimeria tenella [2]; level in feed not given,Slight
same,Morbidity,Eimeria tenella [2]; level in feed not given,5/15
same,Mortality,Eimeria tenella [2]; level in feed not given,0/15
same,F/G Day 0-3,Eimeria tenella [2]; level in feed not given,1.81
same,"Gain, Grams Day 0-3",Eimeria tenella [2]; level in feed not given,53.2 Grams
same,F/G Day 4-10,Eimeria tenella [2]; level in feed not given,1.64
same,"Gain, Grams Day 4-10",Eimeria tenella [2]; level in feed not given,202.5 Grams
Bacitracin-Copper-Lysocellin Complex [Example 2],Cecal Bleeding,Eimeria tenella [1]; 14 g/ton Lasalocid (Approx.),Severe
same,Gain/Bird Days 0-3,Eimeria tenella [1]; 14 g/ton Lasalocid (Approx.),60.5
same,Gain/Bird Days 4-10,Eimeria tenella [1]; 14 g/ton Lasalocid (Approx.),171.5
same,Cecal Bleeding,Eimeria tenella [1]; 36 g/ton Lasalocid (Approx.),Slight-Moderate
same,Gain/Bird Days 0-3,Eimeria tenella [1]; 36 g/ton Lasalocid (Approx.),57.0
same,Gain/Bird Days 4-10,Eimeria tenella [1]; 36 g/ton Lasalocid (Approx.),198.7
same,Incidence of Bloody Droppings,Eimeria tenella [1]; 80 g/ton in feed,Severe
same,Morbidity,Eimeria tenella [1]; 80 g/ton in feed,5/15
same,Mortality,Eimeria tenella [1]; 80 g/ton in feed,0/15
same,F/G Day 0-3,Eimeria tenella [1]; 80 g/ton in feed,1.68
same,Gain/Bird Grams Day 0-3,Eimeria tenella [1]; 80 g/ton in feed,60.5 Grams
same,F/G Day 4-10,Eimeria tenella [1]; 80 g/ton in feed,1.92
same,Gain/Bird Grams Day 4-10,Eimeria tenella [1]; 80 g/ton in feed,171.5 Grams
same,Cecal bleeding associated with E. tenella infections,Eimeria tenella [1]; 80 gram per ton,severe
same,weight gains compared with those of test compound 5 and lasalocid,Eimeria tenella [1]; 80 gram per ton (lasalocid 24 gram per ton),appreciably higher
same,Morbidity,Eimeria tenella [1]; 120 g/ton in feed,4/15
same,Mortality,Eimeria tenella [1]; 120 g/ton in feed,0/15
same,F/G Day 0-3,Eimeria tenella [1]; 120 g/ton in feed,1.75
same,Gain/Bird Grams Day 0-3,Eimeria tenella [1]; 120 g/ton in feed,57.0 Grams
same,F/G Day 4-10,Eimeria tenella [1]; 120 g/ton in feed,1.74
same,Gain/Bird Grams Day 4-10,Eimeria tenella [1]; 120 g/ton in feed,198.7 Grams
same,anticoccidial activity (in words),Eimeria tenella [1]; 120 grams per ton,good anticoccidial activity
same,Incidence of Bloody Droppings,Eimeria tenella [2]; 80 g/ton in feed,Severe
same,Morbidity,Eimeria tenella [2]; [5],6/15
same,Mortality,Eimeria tenella [2]; [6],1/15
same,"Gain, Grams Day 0-3",Eimeria tenella [2]; 80 g/ton in feed,59.0 Grams
same,"Gain, Grams Day 4-10",Eimeria tenella [2]; 80 g/ton in feed,200.2 Grams
same,F/G Day 0-3,Eimeria tenella [2]; [7],1.67
same,F/G Day 4-10,Eimeria tenella [2]; [7],1.74
same,Morbidity,Eimeria tenella [2]; [8],6/15
same,Mortality,Eimeria tenella [2]; [9],0/15
same,"Gain, Grams Day 0-3",Eimeria tenella [2]; 120 g/ton in feed,64.3 Grams
same,"Gain, Grams Day 4-10",Eimeria tenella [2]; 120 g/ton in feed,203.5 Grams
same,F/G Day 0-3,Eimeria tenella [2]; [10],1.69
same,F/G Day 4-10,Eimeria tenella [2]; [10],1.74
Bacitracin-Zn-Lasalocid Complex,Gain/Feed Data,[3]; 12 days,.609
same,Gains/gram Data,[3]; 12 days,213.5 gram
same,Gain/Feed Index Relative to #1,[3]; #1 = unmedicated,108.2
same,Gains Index Relative to #1,[3]; #1 = unmedicated,115.3
same,Gain/Feed Index Relative to #2,[3]; #2 = zinc bacitracin,102.2
same,Gains Index Relative to #2,[3]; #2 = zinc bacitracin,101.9
same,Average Gain,[4]; 11 days,225 g
same,Gain/Feed Ratio,[4]; 11 days,65.6
same,Average Weight,[4]; Table 4,285.6
same,Gain/Feed,[4]; Table 4,65.6
same,Average Gain Index,[4]; unmedicated = 100,109.4
same,Gain/Feed Ratio Index,[4]; unmedicated = 100,103.0
